# Data as given in US9234025B2, “Extracellular allosteric inhibitor binding domain from a tyrosine kinase receptor” (SANOFI, priority 2009, dated 2016).
# Key:
# [1] = test system: various FGFRs; assay: additional SPA assays, FGF ligands to various FGFRs; assay type: binding
# [2] = biological target: FGF2 (Homo sapiens, UniProt P09038); assay: FGF2 dimerization; assay type: biochemical
# [3] = test system: HUVEC; assay: cell migration with various growth factors (modified Boyden chamber); assay type: cell-based, human; conditions: SSR 1 μM
# Method: Cell migration was assessed by a modified Boyden chamber assay, by using 24-well inserts containing 8 μm pore size transwell permeable supports with a polycarbonate membrane (Costar, Corning Inc.). Exponentially growing cells were starved in 0.2% FBS containing medium for 16 hours and resuspended at 5×10^5 cells/ml in the same low serum medium. 100 μl of the cell suspension were seeded in the upper chamber, while chemoattractants and/or SSR were placed in the lower chamber. Chemoattractants tested include: human PDGF-BB, IGF-I, PIGF, EGF, all at 100 ng/ml, in the presence or absence of SSR (1 μM). 10% FBS containing medium was used a positive control. After 6 hours incubation at 37° C., cells on the upper side of the membrane were scraped using a cotton swab, while migrated cells on the lower surface were fixed with 1% paraformaldehyde in PBS and nuclei stained with DAPI for quantification using a fluorescent microsope. Quanitifcation is performed by making 5 random images at a magnification of 10× and by counting the number of nuclei.
# [4] = biological target: T1, FGFR2^WT (Homo sapiens, UniProt P21802); assay: FGF2-induced ERK1/2 phosphorylation in HEK293 cells, FGFR2 WT; assay type: cell-based; conditions: stable HEK293 FGFR2^WT cells; FGF2 0.5 ng/ml 5 min; average±sem, three experiments; read-out: IC50 value, inhibition of FGF2 induced ERK1/2 phosphorylation
# T1 construct: expressed in transfected cells
# Method: (§1) HEK293 cells were either transiently of stably transfected (using FuGENE 6, Roche) with hFGFR2IIIca or hFGFR2IIIca-Y328D cloned in pcDNA3 (Invitrogen). Stably transfected cells were grown in G418 (400 μg/ml) containing medium. Before stimulation, the cells were starved overnight in DMEM (0% serum), and pre-incubated with […] at the required concentration. The cells were subsequently stimulated with FGF2 (concentration between 0.5-10 ng/ml) for 5 min at 37° C. with or without SSR or SU5402 at 1 μM. After washing with ice-cold phosphate-buffered saline containing phosphatase inhibitors (Roche), cells were lysed in RIPA buffer (Tris 30 mM HCl pH 7.5, 150 mM NaCl, 1 mM EDTA, 1% triton-X, 0.5% w/v deoxycholate, containing phophatase and protease inhibitors as described by the manufacturer (Roche)). Cell lysates were centrifuged at 12,000 g for 10 min, and the supernatants were collected. Proteins were separated on Novex polyacrylamide gels (Invitrogen, Carlsbad, Calif.) and subsequently transferred onto Hybond ECL nitrocellulose membranes (Amersham Pharmacia). Following incubation with 5% non-fat milk powder in PBS, the membranes were incubated overnight at 4° C. with the following antibodies: phospho-ERK1/2 (CST:9101), phospho-FRS2 (CST:3861), phospho-PLCγ (CST:2821) and FGFR2 (F0300, Sigma).
# [5] = biological target: T2, FGFR4 (Homo sapiens, UniProt P22455); assay: AlexaFluor488-FGF2 binding on FGFR4-transfected 300-19 cells (flow cytometry); conditions: SSR 300 nM; FGF2 10 ng/ml; murine pre-B 300-19 cells
# T2 construct: expressed in transfected cells; host or cells: murine pre-B 300-19 cells
# Method: FGF2 was labeled with Alexa Fluor 488 C5-maleimide (Invitrogen, A10254) following purchaser recommendations.
# This AF488-FGF2 was used at 10 ng/ml in binding experiments on murine pre-B 300-19 cells transfected with FGFR1 or FGFR4 constructs in pEF6-V5/His Topo plasmids (Invitrogen). SSR (300 nM final) was pre-incubating 20 min with cells in RPMI 1640 (Invitrogen, 32404-014) with 10% FCS (Hyclone, SH30070.03), 2 mM glutamine, MEM non-essential amino-acid 1× (Gibco, 11140-035), MEM sodium pyruvate 1× (Gibco, 11360-039) and […] monothioglycerol (Sigma, M6145) at 4° C. under 150 rpm agitation. Then, FGF2 (10 ng/ml final) is added for 30 min and binding is measured using a FACS Calibur flow cytometer (Beckton Dickinson). Fluorescence median for each condition is also analysed.
# [6] = biological target: T3, FGFR2^∂23-Y328D (Homo sapiens, UniProt P21802, Y328D); assay: FTIR measurement, FGFR2 Y328D mutant; parameters: FGFR2^∂23 (consisting of domain D2 and 3); made in house; conditions: 100 μM SSR
# Method: Fourier transform infrared measurements were performed using a Bruker Tensor 37 FT-IR spectrometer equipped with an AquaSpec flowcell. The sample compartment was thermostatted to 25° C., 100 spectra were averaged for a good signal to noise ratio. Proteins were purified as described above. Immediately after the gelfiltration, the proteins were dialysed overnight in the same preparation of buffer (10 mM Hepes pH 7.2, 150 mM NaCl) in the presence or absence of SSR. Dialysis buffer samples were used to substract background signal. The analysis was performed using the OPUS software package, provided by Bruker. Interpretation of the results was performed as described {Barth, 2002 #60}.
# We next explored whether SSR bound to amino acid residues that form part of the orthosteric site in D3 or to an alternative allosteric site. Initially, we used the molecular docking algorithms of the software packages MOLEGRO, Autodock and YASARA and available crystallographic data. […] These findings are consistent with a model whereby SSR binds to an allosteric site formed by a hydrophobic pocket near the orthosteric ligand binding site, and in which residue Tyr^328 seems to be critical for mediating the interaction between SSR to FGFR2. We also analyzed the FTIR spectrum of the aforementioned mutated FGFR2 fragments.
# Target sequence in this assay (P21802 148-366 Y328D limits assumed): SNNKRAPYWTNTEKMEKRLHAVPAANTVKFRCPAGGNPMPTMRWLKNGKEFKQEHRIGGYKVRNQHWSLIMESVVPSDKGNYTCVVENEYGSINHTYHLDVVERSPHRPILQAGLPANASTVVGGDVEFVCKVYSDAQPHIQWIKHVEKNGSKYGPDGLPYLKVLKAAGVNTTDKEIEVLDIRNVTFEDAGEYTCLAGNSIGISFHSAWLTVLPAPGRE
# [7] = biological target: T3, FGFR2^∂23-Y328D; assay: FGF2-induced ERK1/2 phosphorylation in HEK293 cells, FGFR2 Y328D; assay type: cell-based; parameters: stably transfected HEK293 cells with full length FGFR2-WT or -Y328D; expressed in transfected cells; host or cells: HEK293; conditions: stable HEK293 FGFR2 Y328D cells; FGF2 0.5 ng/ml 5 min; average±sem, three experiments; read-out: IC50 value, inhibition of FGF2 induced ERK1/2 phosphorylation
# Method: as §1
# Target sequence in this assay (P21802 22-821 Y328D): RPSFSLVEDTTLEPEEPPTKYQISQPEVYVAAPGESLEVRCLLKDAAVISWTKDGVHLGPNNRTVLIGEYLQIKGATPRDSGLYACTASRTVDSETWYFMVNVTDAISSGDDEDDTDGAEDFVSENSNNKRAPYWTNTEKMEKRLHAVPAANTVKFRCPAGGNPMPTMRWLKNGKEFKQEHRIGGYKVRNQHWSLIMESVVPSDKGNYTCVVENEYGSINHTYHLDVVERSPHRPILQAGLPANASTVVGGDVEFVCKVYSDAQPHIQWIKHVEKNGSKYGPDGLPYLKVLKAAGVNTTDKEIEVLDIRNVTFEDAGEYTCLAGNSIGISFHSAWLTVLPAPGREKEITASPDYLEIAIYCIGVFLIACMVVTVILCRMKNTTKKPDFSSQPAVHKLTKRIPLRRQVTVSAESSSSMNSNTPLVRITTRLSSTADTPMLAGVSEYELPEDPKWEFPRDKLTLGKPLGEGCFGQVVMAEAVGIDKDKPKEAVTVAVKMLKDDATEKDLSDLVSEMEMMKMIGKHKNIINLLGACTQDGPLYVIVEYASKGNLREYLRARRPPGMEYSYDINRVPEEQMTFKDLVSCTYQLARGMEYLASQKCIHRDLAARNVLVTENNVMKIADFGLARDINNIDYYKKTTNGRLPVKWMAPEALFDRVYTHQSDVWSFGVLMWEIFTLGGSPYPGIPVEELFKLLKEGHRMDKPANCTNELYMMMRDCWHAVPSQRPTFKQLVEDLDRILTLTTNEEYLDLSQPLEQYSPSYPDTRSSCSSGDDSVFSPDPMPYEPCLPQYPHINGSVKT
# T2 sequence (P22455 22-802): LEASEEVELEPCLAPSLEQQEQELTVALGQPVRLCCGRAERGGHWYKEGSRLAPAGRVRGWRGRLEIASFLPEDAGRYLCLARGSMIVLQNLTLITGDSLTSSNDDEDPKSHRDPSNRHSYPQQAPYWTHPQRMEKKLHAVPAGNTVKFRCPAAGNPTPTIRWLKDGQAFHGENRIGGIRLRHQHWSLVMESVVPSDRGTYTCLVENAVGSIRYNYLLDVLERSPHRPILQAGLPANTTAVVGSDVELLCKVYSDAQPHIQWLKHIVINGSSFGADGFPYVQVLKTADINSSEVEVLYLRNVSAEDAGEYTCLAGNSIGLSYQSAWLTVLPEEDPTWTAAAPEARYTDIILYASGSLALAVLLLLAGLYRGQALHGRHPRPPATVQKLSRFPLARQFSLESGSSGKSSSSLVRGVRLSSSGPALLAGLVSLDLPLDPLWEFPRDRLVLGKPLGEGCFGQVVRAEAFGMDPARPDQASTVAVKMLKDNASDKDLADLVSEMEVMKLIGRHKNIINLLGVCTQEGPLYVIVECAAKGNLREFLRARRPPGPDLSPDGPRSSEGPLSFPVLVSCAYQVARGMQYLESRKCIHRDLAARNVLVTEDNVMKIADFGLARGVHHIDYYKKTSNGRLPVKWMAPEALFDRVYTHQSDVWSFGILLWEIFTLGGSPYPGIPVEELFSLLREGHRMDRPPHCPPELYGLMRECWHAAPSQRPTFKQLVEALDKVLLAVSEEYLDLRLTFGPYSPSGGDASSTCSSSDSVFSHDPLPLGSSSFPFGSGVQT
# T1 sequence (P21802 22-821): as the sequence (P21802 22-821 Y328D) above, with D307Y counted along it
# Chain of FGF2 (P09038 134-288, species assumed): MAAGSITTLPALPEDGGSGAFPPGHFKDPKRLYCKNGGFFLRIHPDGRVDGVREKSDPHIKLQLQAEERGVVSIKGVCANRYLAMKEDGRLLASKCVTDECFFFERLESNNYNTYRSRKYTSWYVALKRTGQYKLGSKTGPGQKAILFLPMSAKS
compound,measurement,setting,value
COc1c(C)c(C(=O)c2ccc(N)c(C(=O)[O-])c2)n2ccccc12.[Na+] [SSR],binding of different FGF ligands to various FGFRs,[1],blocking the binding of different FGF ligands to various FGFRs
same,FGF2 dimerization,[2],not able to inhibit
same,cellular response (migration) induced by EGF,[3]; EGF 100 ng/ml,did not affect
same,cellular response (migration) induced by IGF,[3]; IGF-I 100 ng/ml,did not affect
same,cellular response (migration) induced by PDGF-BB,[3]; PDGF-BB 100 ng/ml,did not affect
same,cellular response (migration) induced by PIGF,[3]; PIGF 100 ng/ml,did not affect
same,IC50,[4],28 ± 12 nM
same,competition with AlexaFluor488-labelled FGF2 binding to FGFR4,[5],not able to compete this binding
same,change of FTIR spectrum (conformational change),[6],failed to induce this change
same,IC50,[7],121 ± 30 nM
